For orientation: AC50 means the concentration giving half of the maximal activity seen.

In one test the target is T1, wild type human POLγ (POLγA:WT) (Homo sapiens, UniProt P54098).
T1 sequence (P54098 1-1239): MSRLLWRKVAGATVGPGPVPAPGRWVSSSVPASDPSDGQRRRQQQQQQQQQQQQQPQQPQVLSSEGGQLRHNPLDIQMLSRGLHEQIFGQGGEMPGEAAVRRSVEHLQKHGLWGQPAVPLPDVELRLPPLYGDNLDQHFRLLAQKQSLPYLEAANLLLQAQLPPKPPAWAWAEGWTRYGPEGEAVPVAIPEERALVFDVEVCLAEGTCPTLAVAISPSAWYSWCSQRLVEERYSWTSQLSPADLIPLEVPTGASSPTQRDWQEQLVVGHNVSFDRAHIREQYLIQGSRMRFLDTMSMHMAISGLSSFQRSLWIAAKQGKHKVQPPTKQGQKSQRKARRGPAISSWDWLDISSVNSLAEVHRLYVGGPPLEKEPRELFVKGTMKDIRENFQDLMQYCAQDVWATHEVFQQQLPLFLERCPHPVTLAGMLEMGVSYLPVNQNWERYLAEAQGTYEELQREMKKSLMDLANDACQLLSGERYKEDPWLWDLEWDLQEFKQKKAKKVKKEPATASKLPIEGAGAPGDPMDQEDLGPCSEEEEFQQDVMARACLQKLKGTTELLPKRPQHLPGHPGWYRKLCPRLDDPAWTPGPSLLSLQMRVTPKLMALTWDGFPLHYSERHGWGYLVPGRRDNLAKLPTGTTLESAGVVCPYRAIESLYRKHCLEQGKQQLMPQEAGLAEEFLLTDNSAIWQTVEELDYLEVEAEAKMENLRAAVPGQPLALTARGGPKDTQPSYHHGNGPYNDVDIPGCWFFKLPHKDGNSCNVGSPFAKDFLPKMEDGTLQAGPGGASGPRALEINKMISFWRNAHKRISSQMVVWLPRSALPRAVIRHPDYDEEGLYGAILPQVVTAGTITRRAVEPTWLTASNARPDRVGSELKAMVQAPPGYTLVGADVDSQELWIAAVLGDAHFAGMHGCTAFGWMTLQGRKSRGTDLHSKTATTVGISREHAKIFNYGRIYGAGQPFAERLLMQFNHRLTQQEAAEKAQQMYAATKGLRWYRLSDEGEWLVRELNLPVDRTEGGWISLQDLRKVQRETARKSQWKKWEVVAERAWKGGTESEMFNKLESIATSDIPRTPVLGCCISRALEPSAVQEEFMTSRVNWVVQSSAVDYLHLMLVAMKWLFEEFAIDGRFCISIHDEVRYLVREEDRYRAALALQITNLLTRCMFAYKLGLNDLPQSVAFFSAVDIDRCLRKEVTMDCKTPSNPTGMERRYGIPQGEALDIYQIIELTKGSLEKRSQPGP
T1 sequence (Q9UHN1 1-485 partner): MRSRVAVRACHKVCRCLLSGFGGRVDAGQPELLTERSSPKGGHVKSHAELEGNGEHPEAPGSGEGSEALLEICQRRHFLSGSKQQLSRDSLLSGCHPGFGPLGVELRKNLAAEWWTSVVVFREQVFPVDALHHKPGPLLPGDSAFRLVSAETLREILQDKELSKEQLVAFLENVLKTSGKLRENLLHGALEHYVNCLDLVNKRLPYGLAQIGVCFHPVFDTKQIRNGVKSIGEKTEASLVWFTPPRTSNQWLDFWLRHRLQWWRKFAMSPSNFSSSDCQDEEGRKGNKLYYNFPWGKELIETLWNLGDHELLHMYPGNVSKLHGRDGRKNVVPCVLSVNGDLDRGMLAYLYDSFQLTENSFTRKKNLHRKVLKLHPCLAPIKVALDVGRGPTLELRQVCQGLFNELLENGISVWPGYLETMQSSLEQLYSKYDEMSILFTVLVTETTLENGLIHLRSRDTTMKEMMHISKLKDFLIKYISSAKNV
In words: DNA polymerization assay, wild type POLγ. The format is biochemical. To be noted: 0.1 μM dNTP, read-out: WT AC50 (μM) at 0.1 μM. As to the method:
DNA Polymerization Assay to Monitor Effects on Human Wildtype POLγ and Four Disease-Causing Mutant Variants of Human POLγ.
The ability of small molecules to stimulate the polymerase activity of POLγ was analyzed in a quantitative fluorescence SYBR Green I assay with fluorescence intensity (FI) readout.
In the presence of dNTPs, wild type human POLγ and mutant derivatives thereof were incubated with single-stranded, circular M13mp18 ssDNA hybridized to a short DNA oligonucleotide that functions as a primer for initiation of DNA synthesis. POLγ and mutant derivatives thereof will extend the primer and use the M13mp18 molecule as a template to synthesize long stretches of double-stranded DNA. SYBR Green I, which is a double-stranded DNA-binding dye, was used to quantify formation of double-stranded DNA in the reaction. When bound to double-stranded DNA, SYBR Green I fluorescence increases by up to 100-fold.
The assay was performed in the 384-well plate format. Upon addition of compounds, changes in double-stranded DNA synthesis activity can be monitored by following effects on fluorescent intensity.
The reactions also contained the accessory POLγB subunit, and the human mitochondrial single-stranded DNA binding protein (mtSSB).
The DNA template mixture used in the assay contained 0.5 nM primed M13 mp18 ssDNA, 400 nM mtSSB, 0.1 mM Tris-HCl (pH 8.0), 0.1 mM dNTP, 10 mM MgCl2, 0.1 mg/mL BSA, 1 mM TCEP solution, and 0.02% Triton X-100. The DNA template mixture for the wild type protein contained either 100 μM dNTP, 1 μM dNTP, or 0.1 μM dNTP, designated in Table 2 as 100 μM, 1 μM, and 0.1 μM, respectfully.
Microplates with compounds (0.1 μL in each well) to be tested in the assay were prepared from 10 mM compound stocks in 100% DMSO, and equal amounts of DMSO without any compound were added to positive and negative control wells.
The protein mixture was dispensed (5 μL into each well) into compound plates and incubated at 37° C. for 15 minutes. After incubation, 5 μL of the DNA template mixture was dispensed into each well. The plates were then incubated at 37° C. for 2 hours.
During incubation, a combined stop buffer and detection reagent solution was prepared. The buffer contained 25 mM EDTA (pH 8.0), 0.02% Triton X-100, and SYBR Green I [Invitrogen] diluted 10,000× (for fluorescent readout). EDTA will stop the enzymatic reaction by chelating magnesium ions.
As for `Cc1ccc(C)c(S(=O)(=O)Nc2cccc(C(=O)N3CCOCC3)c2)c1` [Example 29, 2,5-dimethyl-N-(3-(morpholine-4-carbonyl)phenyl)benzenesulfonamide], the half-maximal activity concentration (AC50) stood at 2 µM. As to `CC(=O)N1CCN(C(=O)c2cccc(NS(=O)(=O)c3cc(C)ccc3C)c2)CC1` [Example 30, N-(3-(4-acetylpiperazine-1-carbonyl)phenyl)-2,5-dimethylbenzenesulfonamide], the half-maximal activity concentration (AC50) stood at 2 µM. On the same count and under the same terms, with `Cc1ccc(C)c(S(=O)(=O)Nc2cccc(C(=O)N3CCCCCC3)c2)c1` [Example 32, N-(3-(azepane-1-carbonyl)phenyl)-2,5-dimethylbenzenesulfonamide] the figure was 12 µM; with `Cc1ccc(C)c(S(=O)(=O)Nc2cccc(C(=O)N3CCSCC3C(N)=O)c2)c1` (centres unmarked) [Example 41, 4-(3-((2,5-dimethylphenyl)sulfonamido)benzoyl) thiomorpholine-3-carboxamide], greater than 100 µM. The same measure, in the same setting: with `Cc1cc(S(=O)(=O)Nc2ccc(F)c(C(=O)N3CCC[C@H]3C)c2)c(C)cc1Cl` [Example 49, (R)-4-chloro-N-(4-fluoro-3-(2-methylpyrrolidine-1-carbonyl)phenyl)-2,5-dimethylbenzenesulfonamide] the figure was 2 µM. The same measure, in the same setting: with `Cc1cc(S(=O)(=O)Nc2cc(C(=O)N3CCC[C@H]3C)ccc2F)c(C)cc1Cl` [Example 50, (R)-4-chloro-N-(2-fluoro-5-(2-methylpyrrolidine-1-carbonyl)phenyl)-2,5-dimethylbenzenesulfonamide] the figure was 1 µM; with `Cc1cc(S(=O)(=O)Nc2cccc(C(=O)N[C@H](C)CO)c2)c(C)cc1Cl` [Example 51, (R)-3-((4-chloro-2,5-dimethylphenyl)sulfonamido)-N-(1-hydroxypropan-2-yl)benzamide], 6 µM. Take `Cc1cc(S(=O)(=O)Nc2cccc(C(=O)N3CCN(C)C[C@H]3C)c2)c(C)cc1Cl` [Example 54, (R)-4-chloro-N-(3-(2,4-dimethylpiperazine-1-carbonyl)phenyl)-2,5-dimethylbenzenesulfonamide]: the concentration at half-maximal activity (AC50) was determined as 1 µM. For the compound `COCCN(C)C(=O)c1cccc(NS(=O)(=O)c2cc(C)c(Cl)cc2C)c1` [Example 58, 3-((4-chloro-2,5-dimethylphenyl)sulfonamido)-N-(2-methoxyethyl)-N-methylbenzamide], the AC50 stood at 3 µM.

Still in this test, the particulars now being: 1 μM dNTP, read-out: WT AC50 (μM) at 1 μM.
Regarding `COc1ccccc1-c1nc(NS(=O)(=O)c2cc(C)c(Cl)cc2C)cs1` [Example 155, 4-chloro-N-(2-(2-methoxyphenyl)thiazol-4-yl)-2,5-dimethylbenzenesulfonamide], the AC50 worked out at 0.4 µM.

The same test, now with this note: 100 μM dNTP, read-out: WT AC50 (μM) at 100 μM.
Take `Cc1cc(S(=O)(=O)Nc2cccc(C(=O)N(C)C(C)CO)c2)c(C)cc1Cl` (single isomer, unassigned) [Example 15, 3-((4-chloro-2,5-dimethylphenyl)sulfonamido)-N-(1-hydroxypropan-2-yl)-N-methylbenzamide]: the AC50 is greater than 10 µM. For `Cc1csc(-c2cccc(NS(=O)(=O)c3cc(C)c(Cl)cc3C)c2)n1` [Example 20, 4-chloro-2,5-dimethyl-N-(3-(4-methylthiazol-2-yl)phenyl)benzenesulfonamide], the concentration at half-maximal activity (AC50) is 0.3 µM. The same measure, in the same setting: as for `Cc1cnc(-c2cccc(NS(=O)(=O)c3cc(C)c(Cl)cc3C)c2)s1` [Example 21, 4-chloro-2,5-dimethyl-N-(3-(5-methylthiazol-2-yl)phenyl)benzenesulfonamide], the figure is 1 µM. Still for that read-out and setting: with `Cc1ccc(C)c(S(=O)(=O)Nc2cccc(-c3nccs3)c2)c1` [Example 60] the figure was 0.6 µM; with `Cc1cc(S(=O)(=O)Nc2cccc(-c3cc(C4CC4)[nH]n3)c2)c(C)cc1Cl` [Example 64, 4-chloro-N-(3-(5-cyclopropyl-1H-pyrazol-3-yl)phenyl)-2,5-dimethylbenzenesulfonamide], 0.7 µM; with `CC[C@@H]1CCCN1C(=O)c1cccc(NS(=O)(=O)c2cc(C)c(Cl)cc2C)c1` [Example 65, (R)-4-chloro-N-(3-(2-ethylpyrrolidine-1-carbonyl)phenyl)-2,5-dimethylbenzenesulfonamide], 8 µM. The same measure, in the same setting: as for `Cc1cc(-c2cccc(NS(=O)(=O)c3cc(C)c(Cl)cc3C)c2)n[nH]1` [Example 66, 4-chloro-2,5-dimethyl-N-(3-(5-methyl-1H-pyrazol-3-yl)phenyl)benzenesulfonamide], the figure is 0.5 µM; as for `Cc1cc(S(=O)(=O)Nc2cccc(C(=O)N3CCC[C@H]3C(C)C)c2)c(C)cc1Cl` [Example 67, (S)-4-chloro-N-(3-(2-isopropylpyrrolidine-1-carbonyl)phenyl)-2,5-dimethylbenzenesulfonamide], greater than 10 µM. Turning to `Cc1cc(S(=O)(=O)Nc2cccc(-c3cc[nH]n3)c2)c(C)cc1Cl` [Example 68, N-(3-(1H-pyrazol-3-yl)phenyl)-4-chloro-2,5-dimethylbenzenesulfonamide], the AC50 was 0.2 µM. As for `Cc1cc(S(=O)(=O)Nc2ccc3ccn(C(C)C)c3c2)c(C)cc1Cl` [Example 69, 4-chloro-N-(1-isopropyl-1H-indol-6-yl)-2,5-dimethylbenzenesulfonamide], the AC50 amounted to 1 µM.

As for `Cc1nc2ccc(NS(=O)(=O)c3cc(C)c(Cl)cc3C)cc2o1` [Example 70, 4-chloro-2,5-dimethyl-N-(2-methylbenzo[d]oxazol-6-yl)benzenesulfonamide], the half-maximal activity concentration (AC50) is 11 µM.

For `Cc1cc(S(=O)(=O)Nc2cccc(C(=O)N3CCCC34CC4)c2)c(C)cc1Cl` [Example 162, N-(3-(4-azaspiro[2.4]heptane-4-carbonyl)phenyl)-4-chloro-2,5-dimethylbenzenesulfonamide], the AC50 turned out to be 0.4 µM. On the same count and under the same terms, with `COc1cccc(-c2nc(NS(=O)(=O)c3cc(C)c(Cl)cc3C)cs2)c1` [Example 165, 4-chloro-N-(2-(3-methoxyphenyl)thiazol-4-yl)-2,5-dimethylbenzenesulfonamide] the figure was 0.7 µM.
